Assay results taken from ChEMBL document CHEMBL1152639, “Design, synthesis and nootropic activity of new analogues of sunifiram and sapunifiram, two potent cognition-enhancers” (Bioorg Med Chem, 2009).
Calls of active or inactive are those of the source. The rule behind the calls is not given here.

What was measured:
Mus musculus [1] = test: Antiamnesic activity against scopolamine-induced amnesia in ip dosed mouse by passive-avoidance test; type: functional; settings: read-out: MED
Mus musculus [2] = test: Ratio of MED for drug to MED for piracetam against scopolamine-induced amnesia in ip dosed mouse by passive-avoidance test; type: functional
Mus musculus [3] = test: Effect on inspection activity in ip dosed mouse by hole-board test; type: functional, organism-based
Mus musculus [4] = test: Toxicity in ip dosed mouse assessed as change in gross behavior; type: organism-based; settings: in vivo
Mus musculus [5] = test: Toxicity in ip dosed mouse assessed as change motor coordination by rota rod test; type: organism-based; settings: in vivo
Mus musculus [6] = test: Effect on spontaneous motility in ip dosed mouse by hole-board test; type: functional, organism-based
Mus musculus [7] = test: Procognitive effect in ip dosed mouse assessed as inhibition of memory deficit by passive-avoidance test; type: functional; settings: read-out: MED

SMILES | minimal effective dose (Mus musculus [1]) [mg/kg] | Ratio (Mus musculus [2]) | other results
CCCS(=O)(=O)N1CCN(C(C)=O)CC1 | 0.1 | 30 | 
CCC(=O)N1CCN(S(=O)(=O)c2ccc(F)cc2)CC1 | 0.01 | 30 | 
NC(=O)CN1CCCC1=O [PIRACETAM] | 30 |  | Activity (Mus musculus [3]): inactive; Activity (Mus musculus [4]): Non-toxic; Activity (Mus musculus [5]): Non-toxic; Activity (Mus musculus [6]): inactive
CCNC(=O)C1CCN(S(=O)(=O)c2ccc(F)cc2)CC1 | 1 |  | 
CCC(=O)N1CCCN(S(=O)(=O)c2ccc(F)cc2)CC1 | 1 | 30 | minimal effective dose (Mus musculus [7]): 10 mg/kg
CCC(=O)N1CCCN(S(=O)(=O)c2ccc(F)cc2)C1 | 1 |  | 
CCC(=O)N1CCN(C(=O)c2ccccc2)C1 | 1 |  | 
CCCS(=O)(=O)N1CCN(C(=O)CC)C1 | > 10 |  | 
CCCS(=O)(=O)N1CCCN(C(C)=O)CC1 | > 10 | 30 | 
CCCS(=O)(=O)N1CCCN(C(=O)CC)CC1 | > 10 | 30 | 
CC(=O)N1CCCN(S(=O)(=O)c2ccc(F)cc2)CC1 | 1 | 30 | minimal effective dose (Mus musculus [7]): 10 mg/kg
CC(=O)NC1CCN(S(=O)(=O)c2ccc(F)cc2)CC1 [SAPUNIFIRAM] | 0.01 |  | Activity (Mus musculus [3]): inactive; Activity (Mus musculus [4]): Non-toxic; Activity (Mus musculus [5]): Non-toxic; Activity (Mus musculus [6]): inactive; minimal effective dose (Mus musculus [7]): 0.1 mg/kg
CCC(=O)N1CCN(C(=O)Cc2ccccc2)CC1 | 1 |  | 
CC(=O)N1CCN(S(=O)(=O)c2ccc(F)cc2)CC1 | 0.01 | 30 | 
CCC(=O)N1CCN(C(=O)CC)CC1 | > 10 |  | 
CCC(=O)N1CCN(C(=O)Nc2ccccc2)CC1 | > 10 |  | 
CCC(=O)N1CCN(C(=O)c2ccccc2)CC1 [SUNIFIRAM] | 0.001 | 30 | Activity (Mus musculus [3]): inactive; Activity (Mus musculus [4]): Non-toxic; Activity (Mus musculus [5]): Non-toxic; Activity (Mus musculus [6]): inactive; minimal effective dose (Mus musculus [7]): 0.01 mg/kg
CCCS(=O)(=O)N1CCCN(C(=O)CC)C1 | > 10 |  | 
CCC(=O)N1CCCN(C(=O)c2ccccc2)CC1 | 0.1 | 30 | minimal effective dose (Mus musculus [7]): 1 mg/kg

SMILES | minimal effective dose (Mus musculus [1]) [mg/kg] | Ratio (Mus musculus [2]) | other results
CC(=O)N1CCN(C(=O)c2ccccc2)CC1 | 10 | 30 | 
CNC(=O)C1CCN(S(=O)(=O)c2ccc(F)cc2)CC1 | 0.1 |  | minimal effective dose (Mus musculus [7]): 1 mg/kg
CCCS(=O)(=O)N1CCN(C(=O)CC)CC1 | 1 | 30 | 
CCC(=O)NC1CCN(C(C)=O)CC1 | 10 |  | 
CC(=O)N1CCCN(C(=O)c2ccccc2)C1 | 1 |  | 
CC(=O)N1CCCN(S(=O)(=O)c2ccc(F)cc2)C1 | 1 |  | 
CC(=O)N1CCN(C(=O)c2ccccc2)C1 | 1 |  | 
CCC(=O)N1CCCN(C(=O)c2ccccc2)C1 | 1 |  | 
CCC(=O)N1CCN(S(=O)(=O)c2ccc(F)cc2)C1 | 1 |  | 
CC(=O)N1CCN(S(=O)(=O)c2ccc(F)cc2)C1 | 1 |  | 
CC(=O)N1CCCN(C(=O)Cc2ccccc2)CC1 | 0.01 | 30 | minimal effective dose (Mus musculus [7]): 1 mg/kg
CCC(=O)N1CCN(C(C)=O)CC1 | 10 |  | 
CC(=O)NC(=O)C1CCN(S(=O)(=O)c2ccc(F)cc2)CC1 | 1 |  | 
CCCS(=O)(=O)N1CCCN(C(C)=O)C1 | 1 |  | 
CCCS(=O)(=O)N1CCN(C(C)=O)C1 | 10 |  | 
CCC(=O)N1CCN(C(=O)Oc2ccccc2)CC1 | 10 |  | 
CCC(=O)N1CCC(NC(C)=O)CC1 | > 10 |  | 
CC(=O)N1CCCN(C(=O)c2ccccc2)CC1 | 0.01 | 30 | minimal effective dose (Mus musculus [7]): 1 mg/kg
